Assay results taken from ChEMBL document CHEMBL5360620, “Diphenyl Ether Derivative Rhexocerins and Rhexocercosporins from the Endophytic Fungus Rhexocercosporidium sp. Dzf14 Active against Gram-Positive Bacteria with Multidrug-Resistance” (J Nat Prod, 2023).
Converted amounts (≈) assume the structure as drawn.

Assays:
Enterococcus faecalis = experiment: Antibacterial activity against vancomycin-resistant Enterococcus faecalis 10 incubated for 18 hrs by broth microdilution method; type: functional
Staphylococcus aureus = experiment: Antibacterial activity against methicillin-resistant Staphylococcus aureus T144 incubated for 18 hrs by broth microdilution method; type: functional
Pseudomonas aeruginosa = experiment: Antibacterial activity against wild-type Pseudomonas aeruginosa PAO1 incubated for 18 hrs by broth microdilution method; type: functional
Escherichia coli = experiment: Antibacterial activity against multi-drug resistant Escherichia coli B2 clinical isolate incubated for 18 hrs by broth microdilution method; type: functional
HCT-8 = experiment: Cytotoxicity against human HCT-8 cells by MTT assay; type: toxicity, cell-based
PC-9 = experiment: Cytotoxicity against human PC-9 cells by MTT assay; type: toxicity, cell-based
HGC-27 = experiment: Cytotoxicity against human HGC-27 cells by MTT assay; type: toxicity, cell-based
HepG2 = experiment: Cytotoxicity against human HepG2 cells by MTT assay; type: toxicity, cell-based
PANC-1 = experiment: Cytotoxicity against human PANC-1 cells by MTT assay; type: toxicity, cell-based

COC(=O)c1c(O)cc2c(c1C)[C@@H](C=C(C)C)C1=C(O2)C(=O)C(C)=CC1=O
MIC (Enterococcus faecalis): 8 µg/mL (≈ 21.7 µM)
MIC (Staphylococcus aureus): > 32 µg/mL
MIC (Pseudomonas aeruginosa): > 32 µg/mL
MIC (Escherichia coli): > 32 µg/mL
Activity (HCT-8): Non-Toxic
Activity (PC-9): Non-Toxic
Activity (HGC-27): Non-Toxic
Activity (HepG2): Non-Toxic
Activity (PANC-1): Non-Toxic

CN[C@H](CC(C)C)C(=O)N[C@H]1C(=O)N[C@@H](CC(N)=O)C(=O)N[C@H]2C(=O)N[C@H]3C(=O)N[C@H](C(=O)N[C@H](C(=O)O)c4cc(O)cc(O)c4-c4cc3ccc4O)[C@H](O)c3ccc(c(Cl)c3)Oc3cc2cc(c3O[C@@H]2O[C@H](CO)[C@@H](O)[C@H](O)[C@H]2O[C@H]2C[C@](C)(N)[C@H](O)[C@H](C)O2)Oc2ccc(cc2Cl)[C@H]1O [VANCOMYCIN]
MIC (Enterococcus faecalis): > 128 µg/mL

COC(=O)c1c(OC)cc2c(c1C)[C@@H](C=C(C)C)c1c(O)cc(C)cc1O2
MIC (Enterococcus faecalis): 4 µg/mL (≈ 10.9 µM)
MIC (Staphylococcus aureus): 4 µg/mL (≈ 10.9 µM)
MIC (Pseudomonas aeruginosa): > 32 µg/mL
MIC (Escherichia coli): > 32 µg/mL
Activity (HCT-8): Non-Toxic
Activity (PC-9): Non-Toxic
Activity (HGC-27): Non-Toxic
Activity (HepG2): Non-Toxic
Activity (PANC-1): Non-Toxic

CC(C)=C[C@H]1c2c(O)cc(C)cc2Oc2cc(O)c(C(=O)O)c(C)c21
MIC (Enterococcus faecalis): 16 µg/mL (≈ 47 µM)
MIC (Staphylococcus aureus): 16 µg/mL (≈ 47 µM)
MIC (Pseudomonas aeruginosa): > 32 µg/mL
MIC (Escherichia coli): > 32 µg/mL
Activity (HCT-8): Non-Toxic
Activity (PC-9): Non-Toxic
Activity (HGC-27): Non-Toxic
Activity (HepG2): Non-Toxic
Activity (PANC-1): Non-Toxic

COC(=O)c1c(OC)cc2c(c1C)[C@@H](C=C(C)C)C1=C(O2)C(=O)C(C)=CC1=O
MIC (Enterococcus faecalis): 8 µg/mL (≈ 20.9 µM)
MIC (Staphylococcus aureus): 32 µg/mL (≈ 83.7 µM)
MIC (Pseudomonas aeruginosa): > 32 µg/mL
MIC (Escherichia coli): > 32 µg/mL
Activity (HCT-8): Non-Toxic
Activity (PC-9): Non-Toxic
Activity (HGC-27): Non-Toxic
Activity (HepG2): Non-Toxic
Activity (PANC-1): Non-Toxic

COC(=O)c1c(OC)cc2c(c1C)[C@@H](C=C(C)C)c1c(O)cc(C)c(OC)c1O2
Activity (HCT-8): Non-Toxic
Activity (PC-9): Non-Toxic
Activity (HGC-27): Non-Toxic
Activity (HepG2): Non-Toxic
Activity (PANC-1): Non-Toxic

COC(=O)c1c(O)cc2c(c1C)C=C1c3c(cc(C)c(O)c3O2)OC1(C)C
MIC (Enterococcus faecalis): 16 µg/mL (≈ 43.4 µM)
MIC (Staphylococcus aureus): 16 µg/mL (≈ 43.4 µM)
MIC (Pseudomonas aeruginosa): > 32 µg/mL
MIC (Escherichia coli): > 32 µg/mL
Activity (HCT-8): Non-Toxic
Activity (PC-9): Non-Toxic
Activity (HGC-27): Non-Toxic
Activity (HepG2): Non-Toxic
Activity (PANC-1): Non-Toxic

COC(=O)c1c(OC)cc2c(c1C)[C@H](O)[C@H]1c3c(cc(C)c(O)c3O2)OC1(C)C
Activity (HCT-8): Non-Toxic
Activity (PC-9): Non-Toxic
Activity (HGC-27): Non-Toxic
Activity (HepG2): Non-Toxic
Activity (PANC-1): Non-Toxic

COLISTIN
MIC (Pseudomonas aeruginosa): 0.13 µg/mL
MIC (Escherichia coli): 2 µg/mL

COC(=O)c1c(OC)cc2c(c1C)[C@H](OC)[C@H]1c3c(cc(C)c(O)c3O2)OC1(C)C
Activity (HCT-8): Non-Toxic
Activity (PC-9): Non-Toxic
Activity (HGC-27): Non-Toxic
Activity (HepG2): Non-Toxic
Activity (PANC-1): Non-Toxic

COC(=O)c1c(OC)cc2c(c1C)C=C1c3c(cc(C)c(O)c3O2)OC1(C)C
Activity (HCT-8): Non-Toxic
Activity (PC-9): Non-Toxic
Activity (HGC-27): Non-Toxic
Activity (HepG2): Non-Toxic
Activity (PANC-1): Non-Toxic

COC(=O)c1c(O)cc2c(c1C)[C@@H](C=C(C)C)c1c(O)cc(C)cc1O2
MIC (Enterococcus faecalis): 8 µg/mL (≈ 22.6 µM)
MIC (Staphylococcus aureus): 16 µg/mL (≈ 45.1 µM)
MIC (Pseudomonas aeruginosa): > 32 µg/mL
MIC (Escherichia coli): > 32 µg/mL
Activity (HCT-8): Non-Toxic
Activity (PC-9): Non-Toxic
Activity (HGC-27): Non-Toxic
Activity (HepG2): Non-Toxic
Activity (PANC-1): Non-Toxic
